Earlier results, collected in patent US10434129B2, “Composition to enhance HDL cholesterol and to decrease intima-media thickening in animals and humans and a method for its preparation” (ARJUNA NATURAL LTD, priority 2003, dated 2019).

Key:
[1] = tested on: rat vascular smooth muscle cells (VSMC)
[2] = tested on: Human umbilical vein endothelial cells (HUVEC); details: HUVEC incubated with ox-LDL

O=C(O[C@@H]1O[C@@H]2COC(=O)c3cc(O)c(O)c(O)c3-c3c(cc(O)c(O)c3O)C(=O)O[C@H]([C@H]1O)[C@@H]2O)c1cc(O)c(O)c(O)c1 [corilagin]
VSMC proliferation induced by ox-LDL [1]: inhibited VSMC proliferation | Malondialdehyde (MDA) in the culture media [2]: reduce MDA | adhesion of HUVEC to monocytes ([2]; then monocytes): prevented HUVEC from adhering to monocytes
